Structures can show the parent of a compound that is named as a salt. Where two headings read alike, the source gives them in different places.
Assays:
[1] = biological target: central cholinergic receptors; assay: 3H-oxotremorine M binding (displacement from rat brain homogenates); settings: rat brain homogenate, 40 min at 30° C., pH 7.4, read-out: 3H-Oxo-M IC50
Procedure: The new compounds have high affinity to central cholinergic receptors, as measured by the ability of the compounds to displace tritiated oxotremorine-M from rat brain homogenates. The compounds have also high affinity to central muscarinic M-1 receptors, as defined by their ability to displace tritiated pirenzepine from rat brain homogenates. […]
^3 H-oxotremorine M binding was performed essentially as described by Birdsdall et al., 1980. Briefly, rat brains were homogenized in 100 vol (w/v) 10 mM Na,K-phosphate buffer (pH 7.4) and aliquots incubated with ^3 H-oxotremorine M (84.9 Ci/mmol, NEN) alone or in the presence of test compound in a total volume of 1.5 ml for 40 min. at 30° C. The reaction was stopped by adding 5 ml ice-cold buffer and filtered through Whatman GF/B filters soaked previously in 0.1% polyethylenimin (Sigma) for minimum 30 min. The filters were washed once with the same volume of buffer, transferred to scintillation vials and extracted in scintillation fluid (Pico-fluor 15, Packard) for at least two hours before counted in a liquid scintillation spectrometer (Beckman LS 1800). Non-specific binding was estimated at 10 μM atropine and all estimations made in triplicate. At least two displacement curves were made for each compound tested.

[2] = biological target: T1, central muscarinic M-1 receptors (Rattus norvegicus, UniProt P08482); assay: biochemical; format: binding; settings: rat brain homogenate, 1.0 nM 3H-pirenzepine, 60 min at 25° C.
T1 sequence (P08482 1-460): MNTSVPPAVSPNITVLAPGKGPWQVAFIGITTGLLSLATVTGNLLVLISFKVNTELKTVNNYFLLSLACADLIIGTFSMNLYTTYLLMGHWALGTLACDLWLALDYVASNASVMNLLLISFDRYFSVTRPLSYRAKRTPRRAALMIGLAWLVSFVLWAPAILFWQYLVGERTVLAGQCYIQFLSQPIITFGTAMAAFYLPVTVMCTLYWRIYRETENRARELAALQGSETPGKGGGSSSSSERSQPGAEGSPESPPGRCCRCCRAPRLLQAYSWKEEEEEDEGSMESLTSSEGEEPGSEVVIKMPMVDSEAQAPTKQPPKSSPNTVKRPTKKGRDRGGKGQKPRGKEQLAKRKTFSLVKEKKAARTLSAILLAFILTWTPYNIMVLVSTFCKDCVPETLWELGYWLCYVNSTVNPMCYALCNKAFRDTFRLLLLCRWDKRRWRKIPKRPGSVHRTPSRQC
Procedure: ^3 H-pirenzepine binding was performed essentially as described by Watson et al., 1983, the conditions being very much the same as for ^3 H-oxotremorine binding, except that aliquots were incubated with 1.0 nM ^3 H-pirenzepine for 60 min. at 25° C. and that the reaction was stopped by direct filtration followed by 3 washes with 4 ml buffer.

[3] = after peripheral administration; cited from earlier work
[4] = cited from earlier work
[5] = after peripheral administration; cited from earlier work; remark: listed apart in the source

Row | SMILES | IC50 [1] | IC50 [2] | other results
1 | CCOc1nsc2c1CNCC2 [Compound 5, 3-Ethoxy-4,5,6,7-tetrahydroisothiazolo[4,5-c]pyridine, maleate] | 29 nM | 370 nM | –
2 | COC(=O)C1=CCCN(C)C1 [Arecoline, methyl 1-methyl-1,2,5,6-tetrahydropyridine-3-carboxylate] | 1.9 nM | – | penetration of the BBB [3]: capable of penetrating the BBB after peripheral administration; hydrolysis of the ester group in vivo [4]: very rapidly hydrolyzed in vivo; central effects [5]: very weak and frequently negligible central effects
3 | C#CCOc1nsc2c1CN(C)CC2C (single isomer, unassigned; (-)) [Compound 24, (-)-5,7-Dimethyl-3-(2-propynyloxy)-4,5,6,7-tetrahydroisothiazolo[4,5-c]pyridine, oxalate] | – | 4.3 nM | IC50 ([1]; oxalate): 3.8 nM
4 | C#CCOc1nsc2c1CNCC2C (stereo not shown) [Compound 19, 7-Methyl-3-(2-propynyloxy)-4,5,6,7-tetrahydroisothiazolo[4,5-c]pyridine, fumarate] | 1.8 nM | 6.9 nM | –
5 | C#CCOc1nsc2c1CN(C)CC2C (single isomer, unassigned; (+)) [Compound 23, (+)-5,7-Dimethyl-3-(2-propynyloxy)-4,5,6,7-tetrahydroisothiazolo[4,5-c]pyridine, oxalate] | – | 14 nM | IC50 ([1]; oxalate): 18 nM
6 | C#CCOc1nsc2c1CNCC2C (single isomer, unassigned; (-)) [Compound 21, (-)-7-Methyl-3-(2-propynyloxy)-4,5,6,7-tetrahydroisothiazolo[4,5-c]pyridine, fumarate] | – | 8.1 nM | IC50 ([1]; fumarate): 0.93 nM
7 | COc1nsc2c1CNCC2C (stereo not shown) [Compound 18, 3-Methoxy-7-methyl-4,5,6,7-tetrahydroisothiazolo[4,5-c]pyridine, fumarate] | 24 nM | 130 nM | –
8 | C#CCOc1noc2c1CNCC2C (single isomer, unassigned; (+)) [(+)-O-propargyl-7-Me-THPO, (+)7-methyl-3-(2-propynyloxy)-4,5,6,7-tetrahydroisoxazolo[4,5c]pyridine, reference compound] | 18 nM | 61 nM | –
9 | COc1nsc2c1CNCC2 [Compound 3, 3-Methoxy-4,5,6,7-tetrahydroisothiazole[4,5-c]pyridine Hydrochloride] | 18 nM | 1700 nM | –
10 | C=CCOc1nsc2c1CNCC2C (stereo not drawn) [Compound 25, (-+)-7-Methyl-3-(2-propenyloxy)-4,5,6,7-tetrahydroisothiazolo[4,5-c]pyridine, fumarate] | 5.3 nM | 11 nM | –
11 | C#CCOc1nsc2c1CNCC2 [Compound 8, 3-(2-Propynyloxy)-4,5,6,7-tetrahydroisothiazole[4,5-c]pyridine, hemifumarate] | 6.3 nM | 53 nM | –
12 | C#CCOc1nsc2c1CN(C)CC2C (stereo not drawn) [Compound 22, (-+)-5,7-Dimethyl-3-(2-propynyloxy)-4,5,6,7-tetrahydroisothiazolo[4,5-c]pyridine, oxalate] | 5.3 nM | 6.7 nM | –
13 | C#CCOc1nsc2c1CNCC2C (single isomer, unassigned; (+)) [Compound 20, (+)-7-Methyl-3-(2-propynyloxy)-4,5,6,7-tetrahydroisothiazolo[4,5-c]pyridine, fumarate] | – | 5.5 nM | IC50 ([1]; fumarate): 1.6 nM
